{
  "source": "paper PMC5350466",
  "about": "(mBio, 2017)",
  "key": {"ΔbcnA pbcnA3 (Pa)": {"test_system": "ΔbcnA pbcnA3 (Pa)", "experiment": "MIC by E test", "type": "cell-based, Burkholderia cenocepacia", "conditions": "24 h"}, "ΔbcnA pbcnA1 (Pa)": {"test_system": "ΔbcnA pbcnA1 (Pa)", "experiment": "MIC by E test", "type": "cell-based, Burkholderia cenocepacia", "conditions": "24 h"}, "ΔbcnA pbcnA (MTb)": {"test_system": "ΔbcnA pbcnA (MTb)", "type": "cell-based, Burkholderia cenocepacia"}, "ΔbcnA pbcnA": {"test_system": "ΔbcnA pbcnA", "experiment": "MIC by E test", "type": "cell-based, Burkholderia cenocepacia", "conditions": "24 h"}, "ΔbcnA pbcnA2 (Pa)": {"test_system": "ΔbcnA pbcnA2 (Pa)", "experiment": "MIC by E test", "type": "cell-based, Burkholderia cenocepacia", "conditions": "24 h"}, "[1]": {"target": "Burkholderia cenocepacia BcnA (BCAL3311) (Burkholderia cenocepacia)", "experiment": "other; competition with Nile red, PBS"}, "[2]": {"target": "Burkholderia cenocepacia BcnB (BCAL3310) (Burkholderia cenocepacia)", "experiment": "SEC-MALS; proteins diluted to 1 mg/ml in 20 mM Tris (pH 7.5)-100 mM NaCl"}, "BcnB": {"test_system": "BcnB", "experiment": "In vitro binding of Nile red to BcnB", "design": "species or system Burkholderia cenocepacia", "conditions": "1.5 µM BcnB vs 1.5 µM BcnA", "procedure": "In vitro binding assays were performed as previously described ([23]), with a few modifications. Purified BCNs were prepared in phosphate-buffered saline (PBS, pH 7.4). Phospholipids and Nile red were prepared in DMSO. […] All spectra were corrected for background fluorescence determined from probe-into-buffer titrations. Fluorescence was measured with a Cary Eclipse fluorescence spectrophotometer (Varian) set at an excitation wavelength (λex) specific for each probe, as follows: Nile red, 550 nm; BODIPY phospholipids, 500 nm for fatty acyl BODIPY-labeled phosphocholine and 505 nm for head group BODIPY-labeled phosphoethanolamine. The emission spectrum for each probe was collected across the following wavelengths (λem): Nile red, 590 to 750 nm; BODIPY phospholipids, 510 to 665 nm. The background-corrected binding fluorescence with each probe was fitted to a one-site binding model as previously described for human AGP ([23]). The equilibrium binding affinity constant for the probe-BCN complex (Kd), the probe concentration needed to achieve half-maximum binding at equilibrium, was determined by nonlinear least-squares regression analysis of the binding isotherms with GraphPad Prism v 5.0 software (GraphPad Software, Inc.)."}},
  "data": [
    {"compound": "CC(C)(O/N=C(\\C(=O)N[C@@H]1C(=O)N2C(C(=O)[O-])=C(C[n+]3ccccc3)CS[C@H]12)c1csc(N)n1)C(=O)O", "note": "[Ceftazidime, ceftazidime]", "values": [
      {"measurement": "MIC by Etest, ΔbcnA pbcnA3 (Pa)", "setting": "ΔbcnA pbcnA3 (Pa)", "result": 8, "unit": "µg/mL"},
      {"measurement": "MIC by Etest, ΔbcnA pbcnA1 (Pa)", "setting": "ΔbcnA pbcnA1 (Pa)", "result": 8, "unit": "µg/mL"},
      {"measurement": "MIC by Etest, ΔbcnA pbcnA (MTb)", "setting": "ΔbcnA pbcnA (MTb)", "result": 8, "unit": "µg/mL"},
      {"measurement": "MIC by Etest, ΔbcnA pbcnA", "setting": "ΔbcnA pbcnA", "result": 8, "unit": "µg/mL"},
      {"measurement": "MIC by Etest, ΔbcnA pbcnA2 (Pa)", "setting": "ΔbcnA pbcnA2 (Pa)", "result": 8, "unit": "µg/mL"}
    ]},
    {"compound": "O=C(O)c1cn(C2CC2)c2cc(N3CCNCC3)c(F)cc2c1=O", "note": "[Cipro, ciprofloxacin]", "values": [
      {"measurement": "MIC by Etest, ΔbcnA pbcnA3 (Pa)", "setting": "ΔbcnA pbcnA3 (Pa)", "result": 4, "unit": "µg/mL"},
      {"measurement": "MIC by Etest, ΔbcnA pbcnA1 (Pa)", "setting": "ΔbcnA pbcnA1 (Pa)", "result": 4, "unit": "µg/mL"},
      {"measurement": "MIC by Etest, ΔbcnA pbcnA (MTb)", "setting": "ΔbcnA pbcnA (MTb)", "result": 4, "unit": "µg/mL"},
      {"measurement": "MIC by Etest, ΔbcnA pbcnA", "setting": "ΔbcnA pbcnA", "result": 4, "unit": "µg/mL"},
      {"measurement": "MIC by Etest, ΔbcnA pbcnA2 (Pa)", "setting": "ΔbcnA pbcnA2 (Pa)", "result": 4, "unit": "µg/mL"}
    ]},
    {"compound": "polymyxin B", "values": [
      {"measurement": "Ki", "setting": "[1]", "result": 670, "unit": "µM"}
    ]},
    {"compound": "Burkholderia cenocepacia BcnB (BCAL3310) (natural protein)", "values": [
      {"measurement": "stoichiometry N", "setting": "[2]", "result": 2}
    ]},
    {"compound": "CO[C@H]1/C=C/O[C@@]2(C)Oc3c(C)c(O)c4c(O)c(c(/C=N/N5CCN(C)CC5)c(O)c4c3C2=O)NC(=O)/C(C)=C\\C=C\\[C@H](C)[C@H](O)[C@@H](C)[C@@H](O)[C@@H](C)[C@H](OC(C)=O)[C@@H]1C", "note": "[Rifampicin, rifampin]", "values": [
      {"measurement": "MIC by Etest, ΔbcnA pbcnA3 (Pa)", "setting": "ΔbcnA pbcnA3 (Pa)", "result": "≥ 64", "unit": "µg/mL"},
      {"measurement": "MIC by Etest, ΔbcnA pbcnA1 (Pa)", "setting": "ΔbcnA pbcnA1 (Pa)", "result": "≥ 64", "unit": "µg/mL"},
      {"measurement": "MIC by Etest, ΔbcnA pbcnA (MTb)", "setting": "ΔbcnA pbcnA (MTb)", "result": "≥ 64", "unit": "µg/mL"},
      {"measurement": "MIC by Etest, ΔbcnA pbcnA", "setting": "ΔbcnA pbcnA", "result": "≥ 64", "unit": "µg/mL"},
      {"measurement": "MIC by Etest, ΔbcnA pbcnA2 (Pa)", "setting": "ΔbcnA pbcnA2 (Pa)", "result": 32, "unit": "µg/mL"}
    ]},
    {"compound": "CCN(CC)c1ccc2nc3c4ccccc4c(=O)cc-3oc2c1", "note": "[Nile red]", "values": [
      {"measurement": "affinity of BcnB binding to Nile red, fold lower than that of BcnA", "setting": "BcnB", "result": "~ 20 fold"}
    ]},
    {"compound": "PmB nonapeptide", "values": [
      {"measurement": "Ki", "setting": "[1]", "result": 5080, "unit": "µM"}
    ]}
  ]
}
